pIC50: −log10 of the molar value.

32 compounds from US8541415B2 (University of Pittsburgh—of the Commonwealth System of …, priority 2008, dated 2013) can be followed below.

One data set deals with U87MG cells. The conditions noted are these: human; for Cytotoxicity, Viable cell % control: 96 h, 30 μM. The procedure: (§1) Lead compounds from the yeast screen were evaluated for activity in a Nef-dependent HIV replication assay. For these experiments, U87MG astroglioma cells engineered to express the HIV-1 co-receptors CD4 and CXCR4 were employed. Replication of HIV-1 NL4-3 is dependent upon an intact viral nef gene in these cells, making this system suitable to evaluate leads from the Nef-directed screen. U87MG cells were infected with HIV-1 in the presence of the top five compounds identified in the yeast screen, and HIV replication was monitored as p24 release into the culture supernatant 4 days later, as known in the art. As known in the art, “p24” refers to a constituent protein of the capsid of HIV-1.
(§2) The data of Table 1 are presented as percent p24 release relative to control in the absence of compound. […] Data are expressed as percent viable cells relative to untreated control culture.

A further data set concerns HIV-1 strain NL4-3. The data set can be described thus: microbe, parasite or virus in culture. The settings on record: for activity at 5 µM: 96 h, read-out: HIV p24% Control @ day 4; for Inhibition of pseudotyped NL43 HIV-1 replication / Anti-HIV activity (words, structure-activity comment on Table 1) / Suppression of HIV replication: U87MG cells; for Inhibition of pseudotyped NL43 HIV-1 replication: FIGS. 1-3; for Anti-HIV activity (words, structure-activity comment on Table 1): 5 μM, p24 day 4; for Suppression of HIV replication: p24 release 4 days later, leads from yeast screen. It is filed as cell-based. The procedure:
as §1, §2
It is understood that “strongest” and like terms in the context of inhibitors identified in a library screen refer to compounds that inhibit at the lowest concentrations. For these experiments, the U87MG astroglioma cell line was used as a model system. […] U87MG cells were infected with HIV-1 strain NL4-3 as well as an isogenic variant that fails to express Nef (ΔNef), over a wide range of viral titers and in the presence of each compound at 5 μM. Viral replication was assessed as HIV p24 antigen release into the culture supernatant 4 and/or 5 days later. Methods for the assay of p24 in culture supernatant are well known in the art and include, for example without limitation, immunochemical methods.

Where [1] appears, read: Human immunodeficiency virus 1, NL43, U-87 MG.

As to `O=S(=O)(Nc1nc2ccccc2nc1Nc1cccc(O)c1)c1ccccc1` [Compound Q19], the “Cytotoxicity, Viable cell % control” value with U87MG cells was 92 % control. Moreover, the activity at 5 µM with HIV-1 strain NL4-3 (setting [1]) was 114%.
Regarding `O=C(Nc1ncnc2oc(-c3ccccc3)c(-c3ccccc3)c12)c1ccco1` [IIIh], the “Cytotoxicity, Viable cell % control” value in the data set with U87MG cells was 89 % control. In the data set on HIV-1 strain NL4-3 (setting [1]), the activity at 5 µM came to 59%.
The like results for `COc1ccc(OC)c(Nc2nc3ccccc3nc2NS(=O)(=O)c2ccc(Cl)cc2)c1` [Compound Q2] were, in that order, 100 % control and 10%.
For `O=S(=O)(Nc1nc2ccccc2nc1Nc1cccc2ccccc12)c1ccccc1` [Compound Q4], in that order: 100 % control and 26%.
The melting point is the temperature, or range, at which the solid turns liquid. The compound `O=S(=O)(Nc1nc2ccccc2nc1Nc1cccc2ccccc12)c1ccc(Cl)cc1` [Compound Q22, 4-Chloro-N-[3-(naphthalen-1-ylamino)-quinoxalin-2-yl]-benzenesulfonamide] registered a melting point of 262 to 265 °C. For the same compound, the “Selectivity wild-type vs Nef-deficient NL43 HIV-1” value in the data set with HIV-1 strain NL4-3 (U87MG cells infected with wild-type or Nef-deficient virus, FIG. 3) was “selective and more potent at inhibiting the replication of wild-type virus”. Besides, the “Inhibition of pseudotyped NL43 HIV-1 replication” value in the data set with HIV-1 strain NL4-3 is “potent inhibitors of viral infection”.
Regarding `COc1ccc(Nc2nc3ccccc3nc2NS(=O)(=O)c2ccccc2)cc1OC` [Compound Q17], the “Cytotoxicity, Viable cell % control” value in the data set with U87MG cells worked out at 97 % control. Moreover, the activity at 5 µM with HIV-1 strain NL4-3 (setting [1]) came to 100%. Further, the “Anti-HIV activity (words, structure-activity comment on Table 1)” value in the data set on HIV-1 strain NL4-3 is on record as “one of the least active”.
With `COc1ccccc1Nc1nc2ccccc2nc1NS(=O)(=O)c1ccccc1` [Compound Q14], in the data set on U87MG cells, the “Cytotoxicity, Viable cell % control” value turned out to be 93 % control. The activity at 5 µM in the data set on HIV-1 strain NL4-3 (setting [1]) came to 87%.
For `c1ccc(-c2oc3ncnc(NCCN4CCOCC4)c3c2-c2ccccc2)cc1` [IIIe], in that order: 89 % control and 39%.
The like results for `CCOc1ccc(S(=O)(=O)Nc2nc3ccccc3nc2Nc2ccc(OC)cc2)cc1` [Compound Q18] were, in that order, 99 % control and 112%.
For `O=S(=O)(Nc1nc2ccccc2nc1Nc1ccc(O)cc1)c1ccccc1` [Compound Q11], in that order: 88 % control and 68%.
Take `COc1ccc(Nc2nc3ccccc3nc2NS(=O)(=O)c2ccc(C)cc2)cc1OC` [Compound Q13]: the “Cytotoxicity, Viable cell % control” value in the data set with U87MG cells worked out at 91 % control. Moreover, in the data set with HIV-1 strain NL4-3 (setting [1]), the activity at 5 µM came to 82%.
For `COc1ccc(-c2oc3ncnc(N)c3c2-c2ccccc2)cc1` [IIIj], in that order: 97 % control and 73%.
Consider `O=S(=O)(Nc1nc2ccccc2nc1Nc1ccc2c(c1)OCCO2)c1ccc(Cl)cc1` [Compound Ia, 4-Chloro-N-[3-(2,3-dihydro-benzo[1,4]dioxin-6-ylamino)-quinoxalin-2-yl]-benzenesulfonamide], for which the melting point fell in the range of 257 to 258 °C. Further, the “Concentration up to which not cytotoxic” value with U87MG cells is more than 50 µM. In the data set on HIV-1 strain NL4-3 (Human immunodeficiency virus 1, NL43, U-87 MG, read-out: IC50, HIV replication, U87MG cells expressing CD4 and CXCR4, HIV-1 NL4-3, concentration-response), the pIC50 is approximately 6.89. For the same compound, the “Suppression of HIV replication” value in the data set on HIV-1 strain NL4-3 is “significantly suppressed HIV replication”.
For the compound `COc1ccc(Nc2nc3ccccc3nc2NS(=O)(=O)c2ccc(C)cc2)c(OC)c1` [Compound Q8], the “Cytotoxicity, Viable cell % control” value in the data set with U87MG cells amounted to 90 % control. In the data set on HIV-1 strain NL4-3 (setting [1]), the activity at 5 µM amounted to 55%.
With `COc1ccc(Nc2nc3ccccc3nc2NS(=O)(=O)c2ccc(Cl)cc2)cc1OC` [Compound Q3], the “Cytotoxicity, Viable cell % control” value with U87MG cells is recorded as 100 % control. Besides, in the data set on HIV-1 strain NL4-3 (setting [1]), the activity at 5 µM turned out to be 13%. For the same compound, the “Anti-HIV activity (words, structure-activity comment on Table 1)” value with HIV-1 strain NL4-3 is listed as “one of the most active compounds”.
With `COc1ccc(Nc2nc3ccccc3nc2NS(=O)(=O)c2ccccc2)cc1` [Compound Q20], the “Cytotoxicity, Viable cell % control” value in the data set on U87MG cells was 89 % control. For the same compound, in the data set with HIV-1 strain NL4-3 (setting [1]), the activity at 5 µM turned out to be 119%.
As for `c1ccc(-c2oc3ncnc(NCc4ccco4)c3c2-c2ccccc2)cc1` [IIIb], in the data set on U87MG cells, the “Cytotoxicity, Viable cell % control” value was 109 % control. In the data set on HIV-1 strain NL4-3 (setting [1]), the activity at 5 µM turned out to be 8%.
With `O=C(O)CNc1ncnc2oc(-c3ccccc3)c(-c3ccccc3)c12` [IIIg], in the data set on U87MG cells, the “Cytotoxicity, Viable cell % control” value is given as 100 % control. Besides, the activity at 5 µM with HIV-1 strain NL4-3 (setting [1]) turned out to be 58%.
For `Nc1ncnc2oc(-c3ccco3)c(-c3ccco3)c12` [IIIc], the activity at 5 µM with HIV-1 strain NL4-3 (setting [1]) was 20%.
In the case of `COc1ccc(Nc2nc3ccccc3nc2NS(=O)(=O)c2ccc(Cl)cc2)c(OC)c1` [Compound Q5], the “Cytotoxicity, Viable cell % control” value in the data set on U87MG cells stood at 96 % control. For the same compound, in the data set with HIV-1 strain NL4-3 (setting [1]), the activity at 5 µM worked out at 26%.
The like results for `c1ccc(-c2oc3ncnc(NCCCN4CCOCC4)c3c2-c2ccccc2)cc1` [IIIf] were, in that order, 99 % control and 47%.
`O=S(=O)(Nc1nc2ccccc2nc1Nc1ccc2ccccc2c1)c1ccc(Cl)cc1` [Compound Q21, 4-Chloro-N-[3-(naphthalen-2-ylamino)-quinoxalin-2-yl]-benzenesulfonamide] yielded a melting point of 222 to 224 °C. For the same compound, in the data set with HIV-1 strain NL4-3, the “Inhibition of pseudotyped NL43 HIV-1 replication” value was “potent inhibitors of viral infection”.
As to `OCCNc1ncnc2oc(-c3ccccc3)c(-c3ccccc3)c12` [IIIL], the “Cytotoxicity, Viable cell % control” value in the data set with U87MG cells is listed as 94 % control. Further, the activity at 5 µM in the data set with HIV-1 strain NL4-3 (setting [1]) is 93%.
Regarding `Cc1nc2sc(-c3nc4ccccc4[nH]3)c(N)c2c(C)c1Cl` [IIa], in the data set with U87MG cells, the “Concentration up to which not cytotoxic” value is more than 50 µM. Further, the “Suppression of HIV replication” value with HIV-1 strain NL4-3 is on record as “significantly suppressed HIV replication”.
Consider `CCOc1ccc(S(=O)(=O)Nc2nc3ccccc3nc2Nc2ccccc2)cc1` [Compound Q16], for which the “Cytotoxicity, Viable cell % control” value in the data set with U87MG cells turned out to be 100 % control. Besides, the activity at 5 µM with HIV-1 strain NL4-3 (setting [1]) came out at 91%.
For `O=S(=O)(Nc1nc2ccccc2nc1Nc1ccccc1)c1ccccc1` [Compound Q7], in that order: 97 % control and 42%.
The like results for `O=S(=O)(Nc1nc2ccccc2nc1Nc1ccc2ccccc2c1)c1ccccc1` [Compound Q1] were, in that order, 98 % control and 4%.
The like results for `Nc1ccc(S(=O)(=O)Nc2nc3ccccc3nc2Nc2ccc3ccccc3c2)cc1` [Compound Q6] were, in that order, 92 % control and 40%.
For `Cc1ccc(-c2oc3ncnc(N)c3c2-c2ccc(C)cc2)cc1` [IIId], the “Cytotoxicity, Viable cell % control” value in the data set with U87MG cells was found to be 90 % control. For the same compound, the activity at 5 µM with HIV-1 strain NL4-3 (setting [1]) stood at 29%.
For `CCOc1ccccc1Nc1nc2ccccc2nc1NS(=O)(=O)c1ccc(C)cc1` [Compound Q9], in that order: 100 % control and 60%.
For `COc1ccc2nc(NS(=O)(=O)c3ccccc3)c(Nc3cc(OC)c(OC)c(OC)c3)nc2c1` [Compound Q10], in that order: 95 % control and 62%.
As to `Cc1ccc(S(=O)(=O)Nc2nc3ccccc3nc2Nc2ccc3c(c2)OCCO3)cc1` [Compound Q15], the “Cytotoxicity, Viable cell % control” value in the data set on U87MG cells worked out at 96 % control. Moreover, the activity at 5 µM with HIV-1 strain NL4-3 (setting [1]) was determined as 88%.
